ChEMBL document CHEMBL1201862, “PubChem BioAssay data set” (2004)
Activity calls are given as the source filed them.

Experiments:
[1] = microbe, parasite or virus in culture; format: functional; conditions: Mycobacterium tuberculosis
[2] = target: Luciferin 4-monooxygenase (Photinus pyralis, UniProt P08659); experiment: inhibition of purified Photinus pyralis luciferase – biochemical, luminescence, dose response (AID 1891)
[3] = Luminescence Cell-Based Dose Confirmation HTS to Identify Inhibitors of Platelet Dense Granule Release. [Related pubchem assays: 1663 (Primary HTS), 1678 (Summary of Project)]; format: functional
[4] = NIH3T3 cell viability loss – ATP luminescence, mouse fibroblasts, counter-screen, dose response (AID 2010); format: functional, cell-based;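 further: cells exposed to compound for about 90 hours before reading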
[5] = Trypanosoma cruzi growth suppression in host cells – NIH3T3 host cells, beta-gal luminescence, confirmation (AID 2044); format: functional, cell-based;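 further: intracellular parasites grown in NIH/3T3 mouse fibroblasts as host cells; luminescent beta-galactosidase reporter signal from transgenic T. cruzi replicating inside host cells; inhibitors lower the luminescence signal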
[6] = loss of viability in HepG2 cells – cell-based, CellTiter-Glo, cherry-picked, cytotoxicity control for Shn3 inhibitor project, dose response (AID 624134); format: functional
[7] = target: FAD-linked sulfhydryl oxidase ALR (Homo sapiens, UniProt P55789); experiment: ALR-catalysed DTT oxidation blockers – biochemical, H2O2 detection, luminescence, cherry-pick, dose response (AID 493248)
Chain of FAD-linked sulfhydryl oxidase ALR (P55789 whole entry): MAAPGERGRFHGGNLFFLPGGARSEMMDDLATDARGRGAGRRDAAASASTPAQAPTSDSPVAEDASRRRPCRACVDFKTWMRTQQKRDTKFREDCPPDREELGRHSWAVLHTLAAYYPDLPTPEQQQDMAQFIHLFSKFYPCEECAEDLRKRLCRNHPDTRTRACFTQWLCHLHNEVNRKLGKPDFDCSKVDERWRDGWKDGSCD

Protein skinhead-1 = target: T1, Protein skinhead-1 (Caenorhabditis elegans, UniProt P34707); format: functional
T1 sequence (P34707 whole entry): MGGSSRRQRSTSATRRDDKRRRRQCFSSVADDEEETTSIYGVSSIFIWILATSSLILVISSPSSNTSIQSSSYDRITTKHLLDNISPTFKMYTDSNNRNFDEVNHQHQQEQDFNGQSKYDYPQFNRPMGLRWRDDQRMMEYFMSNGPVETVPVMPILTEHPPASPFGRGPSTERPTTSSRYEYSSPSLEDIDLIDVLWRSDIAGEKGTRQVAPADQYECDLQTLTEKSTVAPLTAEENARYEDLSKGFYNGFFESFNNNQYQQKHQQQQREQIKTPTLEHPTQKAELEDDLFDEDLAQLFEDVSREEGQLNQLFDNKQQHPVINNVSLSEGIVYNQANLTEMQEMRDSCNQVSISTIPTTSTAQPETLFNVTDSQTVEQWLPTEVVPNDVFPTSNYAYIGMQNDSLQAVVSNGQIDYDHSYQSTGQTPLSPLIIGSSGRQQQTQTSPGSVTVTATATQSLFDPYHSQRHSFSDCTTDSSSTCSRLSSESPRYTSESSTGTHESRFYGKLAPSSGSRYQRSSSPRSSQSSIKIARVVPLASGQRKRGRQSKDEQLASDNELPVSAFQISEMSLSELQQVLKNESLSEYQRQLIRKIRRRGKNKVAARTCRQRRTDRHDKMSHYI

[8] = viability of uninfected HEp-2 cells – cell-based, HTS, cytotoxicity control for RSV inhibitor project, dose response (AID 2410); format: functional; conditions: human respiratory syncytial virus
[9] = target: T2, Rac GTPase-activating protein 1 (Homo sapiens, UniProt Q9H0H5); experiment: blockers of MgcRacGAP-driven Rac1 GTP hydrolysis – biochemical, ADP Hunter fluorescence, primary and confirmatory, confirmation (AID 624330); format: functional
T2 sequence (Q9H0H5 whole entry): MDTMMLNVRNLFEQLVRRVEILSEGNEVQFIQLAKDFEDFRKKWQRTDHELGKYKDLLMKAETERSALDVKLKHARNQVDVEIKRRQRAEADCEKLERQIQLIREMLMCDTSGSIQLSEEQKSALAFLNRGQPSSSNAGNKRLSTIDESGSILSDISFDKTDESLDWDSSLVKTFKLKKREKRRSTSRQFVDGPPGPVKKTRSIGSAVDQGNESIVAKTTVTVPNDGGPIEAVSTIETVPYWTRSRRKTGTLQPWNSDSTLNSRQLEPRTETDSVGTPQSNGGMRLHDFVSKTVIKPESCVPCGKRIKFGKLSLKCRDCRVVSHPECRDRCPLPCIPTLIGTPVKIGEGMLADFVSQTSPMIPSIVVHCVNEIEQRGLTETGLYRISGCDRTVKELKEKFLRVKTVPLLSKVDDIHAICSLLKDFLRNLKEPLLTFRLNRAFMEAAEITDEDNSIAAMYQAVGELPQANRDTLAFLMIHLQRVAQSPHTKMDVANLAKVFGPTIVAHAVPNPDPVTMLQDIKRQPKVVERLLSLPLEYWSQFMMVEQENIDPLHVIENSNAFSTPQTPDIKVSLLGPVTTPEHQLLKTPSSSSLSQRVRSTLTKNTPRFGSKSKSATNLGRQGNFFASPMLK

[10] = Luminescence Cell-Based Dose Retest to Confirm Inhibitors of Cancer Stem Cells. [Related pubchem assays (depositor defined):AID2717, AID2721]; format: functional; conditions: Homo sapiens
[11] = reduction of Shn3 3'UTR-driven luciferase in osteoblasts – cell-based, Clone20 osteoblasts, firefly luciferase, cherry-picked, dose response (AID 624132); format: functional;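 further: firefly luciferase luminescence from reporter carrying the Shn3 3'UTR in osteoblasts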
H4 = experiment: Luminescence Cell-Based Dose Response HTS to Identify Activators of 5'UTR Stem-Loop Driven Prion Protein mRNA Translation in H4 Neuroglioblastoma Cells. [Related pubchem assays: 1829 (Project Summary), 1814 (Primary HTS)]; format: functional; conditions: Homo sapiens

Chain of Luciferin 4-monooxygenase (P08659 whole entry): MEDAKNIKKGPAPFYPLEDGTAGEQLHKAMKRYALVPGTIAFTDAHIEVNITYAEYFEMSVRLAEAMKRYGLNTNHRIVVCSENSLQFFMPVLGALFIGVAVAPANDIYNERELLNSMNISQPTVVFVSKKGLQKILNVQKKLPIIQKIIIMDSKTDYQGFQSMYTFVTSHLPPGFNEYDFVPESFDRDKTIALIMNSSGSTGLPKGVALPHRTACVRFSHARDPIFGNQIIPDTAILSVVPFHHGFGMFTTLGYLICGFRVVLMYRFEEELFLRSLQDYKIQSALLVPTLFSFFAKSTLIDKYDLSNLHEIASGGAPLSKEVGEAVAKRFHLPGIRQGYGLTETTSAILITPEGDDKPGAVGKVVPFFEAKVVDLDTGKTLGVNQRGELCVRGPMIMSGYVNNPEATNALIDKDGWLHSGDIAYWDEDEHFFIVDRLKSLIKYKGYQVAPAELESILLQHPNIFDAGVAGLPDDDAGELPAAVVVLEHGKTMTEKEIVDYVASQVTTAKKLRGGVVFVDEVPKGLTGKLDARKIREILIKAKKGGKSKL

With CC(C)c1nc2scc(-c3ccc(Cl)cc3)c2c(=O)n1N as the compound, how does the CC50 [1] read?
Its CC50 is > 40 µM (active).

With O=C(CCCn1cc([N+](=O)[O-])cn1)NC1CCCCCC1 as the compound, how does the EC50 [2] read?
The EC50 was > 112 µM (not active).

What about the EC50 [3] of the same compound?
The EC50 was > 112 µM (not active).

What does the source list for COc1ccccc1C1CCN(Cc2ccc3ccccc3c2)CC1?
CC50 [1]: > 40 µM (active); EC50 [4]: > 60 µM (not active); EC50 [5]: 1.2 µM (active)

Which AC50 [6] does the source give for COc1ccccc1-n1c(SCC(=O)Nc2cc(C)on2)nc2c(c1=O)SCC2 here?
Its AC50 is > 70 µM (inactive).

With CC(C)Cc1nc2oc3c(N4CCN(CCO)CC4)ncnc3c2c2c1CCCC2 as the compound, how does the CC50 [1] read?
Its CC50 is 33.8 µM (active).

What does the source list for CCN(CC(=O)Nc1sc2c(c1C#N)CCCC2)CC(=O)NC1CCS(=O)(=O)C1 (stereo not drawn)?
EC50 [2]: > 112 µM (not active); EC50 [3]: > 112 µM (not active)

For CC1(C)Cc2nc3[nH]nc(N)c3cc2CO1, which AC50 [7] is on record?
The AC50 was 4.26 µM (active).

With COn1c(-c2ccc(Cl)cc2)nc2ccc(Cl)cc21 as the compound, how does the IC50 (Protein skinhead-1) read?
Its IC50 is 10.8 µM (active).

And the CC50 [8]?
The CC50 was 35.3 µM (active).

With CC(=O)N1CCN(c2ccc(NCc3cccc(C)c3)cc2)CC1 as the compound, how does the IC50 [9] read?
The IC50 was 9.89 µM (active).

What about the AC50 [7] of the same compound?
The AC50 was 0.787 µM (active).

Which AC50 [7] does the source give for CN1C(=O)c2ccccc2NC(=O)C1Cc1ccccc1 (stereo not drawn) here?
The AC50 was 3.26 µM (active).

For CC(=O)Nc1ccc(N2C(=O)CSC2c2ccccc2)cc1 (stereo not drawn), which AC50 [7] is on record?
Its AC50 is 0.025 µM (active).

For CCCNC(=O)c1onc(CSc2ccc(Cl)cc2)c1C(=O)NCCC(C)C, which AC50 [10] is on record?
The AC50 was 1.93 µM (active).

With O=C(O)CCCN1C(=O)c2ccccc2Sc2ncccc21 as the compound, how does the IC50 (Protein skinhead-1) read?
Its IC50 is > 100 µM (inactive).

For CC(=O)Nc1ccc(S(=O)(=O)N(C)CC(=O)NNC(=O)c2cccs2)cc1, which IC50 (Protein skinhead-1) is on record?
Its IC50 is > 100 µM (inactive).

Which AC50 [11] does the source give for CC(C)c1ccc(Oc2cccc3c2S(=O)(=O)N(C2CCCC2)CC(COCc2ccccc2)O3)cc1 (stereo not drawn) here?
The AC50 was 15.5 µM (active).

What about the AC50 [6] of the same compound?
The AC50 was > 70 µM (inactive).

With COc1ccc(NC(=O)c2cc3ccccc3o/c2=N\NS(=O)(=O)c2ccc(C)cc2)cc1 as the compound, how does the EC50 (H4) read?
Its EC50 is 575 nM (active).

For COc1ccc(OC)c(NC(=O)c2cc(-c3cc(F)ccc3OCC3CCCO3)[nH]n2)c1 (stereo not drawn), which AC50 [11] is on record?
Its AC50 is 10.5 µM (active).

What does the source list for NC(=O)c1ccccc1N/C=C/C(=O)c1ccc(Cl)cc1Cl?
EC50 [2]: 1.1 µM (active); EC50 [3]: 8.86 µM (active)

Which IC50 [9] does the source give for O=c1/c(=C/c2ccc(O)cc2)sc2n1CCCN=2 here?
Its IC50 is 20.1 µM (active).

What about the AC50 [7] of the same compound?
Its AC50 is 1.16 µM (active).

For CCNc1nc(NCC)nc(N/N=C/c2ccc([N+](=O)[O-])o2)n1, which CC50 [1] is on record?
The CC50 was 39 µM (active).

With Cc1ccc(N/N=C2/CCCNC2=O)cc1 as the compound, how does the AC50 [7] read?
The AC50 was 2.66 µM (active).

Which results are given for CC1=CC(C)[C@H](/C=N/n2c(=O)[nH]c3c([nH]c4ccc(Br)cc43)c2=O)C(C)C1 (stereo partly drawn)?
AC50 [10]: 0.876 µM (active); EC50 [4]: > 60 µM (not active); EC50 [5]: 2.06 µM (active)
